Columns and labels:
hERG = hERG (Homo sapiens (Human), UniProt Q12809); test: Patch clamp assay (hERG tail currents, whole-cell); assay type: cell-based; settings: hERG transfected HEK 293 cells; for hERG % Remaining 10 μM: 10 μM compound; for hERG % Remaining 30 μM: 30 μM compound
Method: The 35 mm culture dishes upon which cells were seeded at a density allowing single cells to be recorded were placed on the dish holder of the microscope and continuously perfused (at approximately 1 mL/min) with the bath solution described in section 4.6. All solutions applied to cells including the pipette solution were maintained at room temperature (19° C. to 30° C.). After formation of a Gigaohm seal between the patch electrodes and individual hERG stably transfected HEK 293 cells (pipette resistance range: 2.0 MΩ2 to 7.0 MΩ; seal resistance range: >1GΩ) the cell membrane across the pipette tip was ruptured to assure electrical access to the cell interior (whole-cell patch-configuration). In case the quality of the seal was poor, the process of seal formation was repeated with a different cell and a new pipette. As soon as a stable seal could be established, hERG outward tail currents were measured upon depolarization of the cell membrane to +20 mV for 2s (activation of channels) from a holding potential of −80 mV and upon subsequent repolarization to −40 mV for 3 s. This voltage protocol (as shown below) was run at least 10 times at intervals of 10 s. If current density was judged to be too low for measurement, another cell was recorded.
During wash-in of the test item the voltage protocol indicated above was run continuously again at 10 s intervals until the steady-state level of block was reached.
The IC50 was determined by fitting the dose response curve with a 2-parameter logistic function (amax=100%).

Menin-MLL = Menin-MLL (Homo sapiens (Human), UniProt O00255); test: Determination of binding constants (Ki) to Menin-MLL (HTRF); settings: HTRF, 0.25 nM H-FL-Menin, 3.2 nM FITC-MLL-4-43, 24 hr incubation; for Ki: read-out: Menin-MLL Ki HTRF Assay: Ki
Sequence of Menin-MLL (O00255 whole entry): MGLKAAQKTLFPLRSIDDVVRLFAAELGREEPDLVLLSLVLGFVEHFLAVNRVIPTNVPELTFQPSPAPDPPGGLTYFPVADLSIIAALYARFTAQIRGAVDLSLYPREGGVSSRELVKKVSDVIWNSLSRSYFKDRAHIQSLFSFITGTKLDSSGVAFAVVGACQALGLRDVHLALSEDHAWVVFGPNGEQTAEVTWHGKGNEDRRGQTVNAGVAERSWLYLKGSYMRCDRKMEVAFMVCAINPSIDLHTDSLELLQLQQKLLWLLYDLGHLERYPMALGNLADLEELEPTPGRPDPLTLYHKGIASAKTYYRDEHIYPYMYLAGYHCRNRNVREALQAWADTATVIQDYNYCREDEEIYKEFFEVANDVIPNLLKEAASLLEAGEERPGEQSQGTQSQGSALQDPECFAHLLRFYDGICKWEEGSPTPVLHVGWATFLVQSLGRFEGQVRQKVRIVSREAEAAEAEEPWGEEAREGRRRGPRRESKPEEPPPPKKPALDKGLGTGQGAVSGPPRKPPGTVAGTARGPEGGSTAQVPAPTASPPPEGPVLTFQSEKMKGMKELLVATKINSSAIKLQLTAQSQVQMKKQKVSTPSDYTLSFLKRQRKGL

Sequence of hERG (Q12809 whole entry): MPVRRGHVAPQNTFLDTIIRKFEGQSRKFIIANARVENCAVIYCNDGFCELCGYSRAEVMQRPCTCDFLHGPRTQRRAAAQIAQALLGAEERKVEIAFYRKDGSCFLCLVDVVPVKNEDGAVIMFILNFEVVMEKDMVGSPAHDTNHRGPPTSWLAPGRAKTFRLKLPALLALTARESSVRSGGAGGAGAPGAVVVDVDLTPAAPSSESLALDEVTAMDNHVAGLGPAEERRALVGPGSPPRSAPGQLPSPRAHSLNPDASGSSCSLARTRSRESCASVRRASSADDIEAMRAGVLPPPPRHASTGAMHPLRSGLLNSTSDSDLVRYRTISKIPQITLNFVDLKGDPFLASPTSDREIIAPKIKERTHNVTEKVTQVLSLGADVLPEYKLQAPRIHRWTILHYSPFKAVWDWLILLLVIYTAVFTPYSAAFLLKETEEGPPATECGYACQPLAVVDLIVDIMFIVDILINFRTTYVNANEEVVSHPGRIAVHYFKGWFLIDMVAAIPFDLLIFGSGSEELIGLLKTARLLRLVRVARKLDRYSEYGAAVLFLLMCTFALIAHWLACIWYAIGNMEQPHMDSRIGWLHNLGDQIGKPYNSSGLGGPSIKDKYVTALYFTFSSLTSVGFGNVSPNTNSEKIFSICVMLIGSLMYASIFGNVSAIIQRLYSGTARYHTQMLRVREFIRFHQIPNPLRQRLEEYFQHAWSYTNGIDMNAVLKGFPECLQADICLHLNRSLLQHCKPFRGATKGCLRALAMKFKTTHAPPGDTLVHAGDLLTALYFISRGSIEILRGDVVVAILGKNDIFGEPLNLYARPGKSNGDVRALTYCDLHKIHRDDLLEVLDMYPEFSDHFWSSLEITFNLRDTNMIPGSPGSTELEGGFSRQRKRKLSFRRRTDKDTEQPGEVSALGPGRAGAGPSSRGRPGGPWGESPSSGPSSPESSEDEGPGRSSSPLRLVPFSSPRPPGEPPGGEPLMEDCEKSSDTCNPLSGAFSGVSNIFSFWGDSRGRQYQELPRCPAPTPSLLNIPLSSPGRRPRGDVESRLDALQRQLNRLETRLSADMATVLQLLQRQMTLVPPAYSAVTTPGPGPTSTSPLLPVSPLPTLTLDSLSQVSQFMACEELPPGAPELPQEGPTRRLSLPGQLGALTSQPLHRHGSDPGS

| SMILES | hERG % Remaining 10 μM (hERG) | hERG % Remaining 30 μM (hERG) | EC50 (Menin-MLL) | Ki (Menin-MLL) | IC50 (hERG) | hERG % Remaining 3 μM (hERG; 3 μM compound) | hERG % Remaining 100 μM (hERG; 100 μM compound) |
| --- | --- | --- | --- | --- | --- | --- | --- |
| CC(C)N(C(=O)c1cc(F)ccc1Oc1cncnc1N1CC2(CCN(C[C@@H]3CC[C@@H](NS(=O)(=O)C4CC4)CO3)CC2)C1)[C@@H]1CCOC1 [Compound 164, 2-((4-(7-(((2S,5R)-5-(Cyclopropanesulfonamido)tetrahydro-2H-pyran-2-yl)methyl)-2,7-diazaspiro[3.5]nonan-2-yl)pyrimidin-5-yl)oxy)-5-fluoro-N-isopropyl-N-((R)-tetrahydrofuran-3-yl)benzamide] | +++ (“+++” means ≥66%) | +++ (“+++” means ≥66%) | < 50 nM | < 1 nM | – | – | – |
| CCN(C(=O)c1cc(F)ccc1Oc1cncnc1N1CC2(CCN(C[C@@H]3CC[C@@H](NS(=O)(=O)c4ccc(=O)[nH]c4C)CO3)CC2)C1)C(C)C [Compound 217, N-Ethyl-5-fluoro-N-isopropyl-2-((4-(7-(((2S,5R)-5-((2-methyl-6-oxo-1,6-dihydropyridine)-3-sulfonamido)tetrahydro-2H-pyran-2-yl)methyl)-2,7-diazaspiro[3.5]nonan-2-yl)pyrimidin-5-yl)oxy)benzamide] | – | +++ (“+++” means ≥66%) | – | < 1 nM | – | – | – |
| CC(C)N(C(=O)c1cc(F)ccc1Oc1cncnc1N1CC2(CCN(C[C@@H]3CC[C@@H](NS(=O)(=O)C4CC4)CO3)CC2)C1)C1CC(F)(F)C1 [Compound 111, 2-((4-(7-(((2S,5R)-5-(Cyclopropanesulfonamido)tetrahydro-2H-pyran-2-yl)methyl)-2,7-diazaspiro[3.5]nonan-2-yl)pyrimidin-5-yl)oxy)-N-(3,3-difluorocyclobutyl)-5-fluoro-N-isopropylbenzamide] | ++ (“++” means ≥33% and <66%) | + (“+” means <33%) | < 50 nM | < 1 nM | – | – | – |
| CCNS(=O)(=O)N[C@@H]1CC[C@@H](CN2CCC3(CC2)CN(c2ncncc2Oc2ccc(F)cc2C(=O)N(C(C)C)C(C)C)C3)OC1 [Compound 144, 2-((4-(7-(((2S,5R)-5-((N-Ethylsulfamoyl)amino)tetrahydro-2H-pyran-2-yl)methyl)-2,7-diazaspiro[3.5]nonan-2-yl)pyrimidin-5-yl)oxy)-5-fluoro-N,N-diisopropylbenzamide] | – | +++ (“+++” means ≥66%) | – | < 1 nM | – | – | – |
| CC(C)N(CC(F)(F)F)C(=O)c1cc(F)ccc1Oc1cncnc1N1CC2(CCN(C[C@@H]3CC[C@@H](NS(=O)(=O)N(C)C)CO3)CC2)C1 [Compound 107, 2-((4-(7-(((2S,5R)-5-((N,N-Dimethylsulfamoyl)amino)tetrahydro-2H-pyran-2-yl)methyl)-2,7-diazaspiro[3.5]nonan-2-yl)pyrimidin-5-yl)oxy)-5-fluoro-N-isopropyl-N-(2,2,2-trifluoroethyl)benzamide] | +++ (“+++” means ≥66%) | ++ (“++” means ≥33% and <66%) | < 50 nM | < 1 nM | – | – | – |
| CCS(=O)(=O)N[C@@H]1CC[C@@H](CN2CCC3(CC2)CN(c2ncncc2Oc2ccc(F)cc2C(=O)N(C(C)C)[C@H]2CCOC2)C3)OC1 [Compound 33, 2-((4-(7-(((2S,5R)-5-(ethylsulfonamido)tetrahydro-2H-pyran-2-yl)methyl)-2,7-diazaspiro[3.5]nonan-2-yl)pyrimidin-5-yl)oxy)-5-fluoro-N-isopropyl-N-((S)-tetrahydrofuran-3-yl)benzamide] | +++ (“+++” means ≥66%) | +++ (“+++” means ≥66%) | < 50 nM | < 1 nM | – | – | – |
| CC(C)N(C(=O)c1cc(F)ccc1Oc1cncnc1N1CC2(CCN(C[C@@H]3CC[C@@H](NS(=O)(=O)N4CCC[C@@H]4C)CO3)CC2)C1)C(C)C [Compound 202, 5-Fluoro-N,N-diisopropyl-2-((4-(7-(((2S,5R)-5-(((S)-2-methylpyrrolidine)-1-sulfonamido)tetrahydro-2H-pyran-2-yl)methyl)-2,7-diazaspiro[3.5]nonan-2-yl)pyrimidin-5-yl)oxy)benzamide] | – | + (“+” means <33%) | – | < 1 nM | – | – | – |
| CC(C)N(C(=O)c1cc(F)ccc1Oc1nncnc1N1CC2(CCN(C[C@@H]3CC[C@@H](NS(=O)(=O)N4CCC4)CO3)CC2)C1)C(C)C [Compound 199, 2-((5-(7-(((2S,5R)-5-(Azetidine-1-sulfonamido)tetrahydro-2H-pyran-2-yl)methyl)-2,7-diazaspiro[3.5]nonan-2-yl)-1,2,4-triazin-6-yl)oxy)-5-fluoro-N,N-diisopropylbenzamide] | – | +++ (“+++” means ≥66%) | – | < 1 nM | – | – | – |
| C[C@@H]1COC[C@@H](C)N1C(=O)c1cc(F)ccc1Oc1cncnc1N1CC2(CCN(C[C@@H]3CC[C@@H](NS(=O)(=O)c4ccccc4)CO3)CC2)C1 [Compound 120, N-((3R,6S)-6-((2-(5-(2-((3R,5R)-3,5-Dimethylmorpholine-4-carbonyl)-4-fluorophenoxy)pyrimidin-4-yl)-2,7-diazaspiro[3.5]nonan-7-yl)methyl)tetrahydro-2H-pyran-3-yl)benzenesulfonamide] | +++ (“+++” means ≥66%) | ++ (“++” means ≥33% and <66%) | < 50 nM | < 1 nM | – | – | – |
| CCN(C(=O)c1cc(F)ccc1Oc1cncnc1N1CC2(CCN(C[C@@H]3CC[C@@H](NS(C)(=O)=O)CO3)CC2)C1)C(C)C [Compound 1, N-ethyl-5-fluoro-N-isopropyl-2-((4-(7-(((2S,5R)-5-(methylsulfonamido)tetrahydro-2H-pyran-2-yl)methyl)-2,7-diazaspiro[3.5]nonan-2-yl)pyrimidin-5-yl)oxy)benzamide] | +++ (“+++” means ≥66%) | ++ (“++” means ≥33% and <66%) | < 50 nM | < 1 nM | – | – | – |
| CCN(C(=O)c1cc(F)ccc1Oc1cncnc1N1CC2(CCN(C[C@@H]3CC[C@@H](NS(=O)(=O)N4CCC[C@@H]4C)CO3)CC2)C1)C(C)C [Compound 201, N-Ethyl-5-fluoro-N-isopropyl-2-((4-(7-(((2S,5R)-5-(((S)-2-methylpyrrolidine)-1-sulfonamido)tetrahydro-2H-pyran-2-yl)methyl)-2,7-diazaspiro[3.5]nonan-2-yl)pyrimidin-5-yl)oxy)benzamide] | + (“+” means <33%) | + (“+” means <33%) | – | < 1 nM | – | – | – |
| CCNS(=O)(=O)N[C@@H]1CC[C@@H](CN2CCC3(CC2)CN(c2ncncc2Oc2ccc(F)cc2C(=O)N(C(C)C)C2CC(F)(F)C2)C3)OC1 [Compound 155, N-(3,3-Difluorocyclobutyl)-2-((4-(7-(((2S,5R)-5-((N-ethylsulfamoyl)amino)tetrahydro-2H-pyran-2-yl)methyl)-2,7-diazaspiro[3.5]nonan-2-yl)pyrimidin-5-yl)oxy)-5-fluoro-N-isopropylbenzamide] | +++ (“+++” means ≥66%) | ++ (“++” means ≥33% and <66%) | – | < 1 nM | – | – | – |
| CC(C)N(C(=O)c1cc(F)ccc1Oc1cncnc1N1CC2(CCN(C[C@@H]3CC[C@@H](NS(=O)(=O)C4CC4)CO3)CC2)C1)C1CC1 [Compound 21, 2-((4-(7-(((2S,5R)-5-(cyclopropanesulfonamido)tetrahydro-2H-pyran-2-yl)methyl)-2,7-diazaspiro[3.5]nonan-2-yl)pyrimidin-5-yl)oxy)-N-cyclopropyl-5-fluoro-N-isopropylbenzamide] | ++ (“++” means ≥33% and <66%) | + (“+” means <33%) | < 50 nM | < 1 nM | – | – | – |
| CCNS(=O)(=O)N[C@@H]1CC[C@@H](CN2CCC3(CC2)CN(c2ncncc2Oc2ccc(F)cc2C(=O)N(CC(F)F)C(C)C)C3)OC1 [Compound 147, N-(2,2-Difluoroethyl)-2-((4-(7-(((2S,5R)-5-((N-ethylsulfamoyl)amino)tetrahydro-2H-pyran-2-yl)methyl)-2,7-diazaspiro[3.5]nonan-2-yl)pyrimidin-5-yl)oxy)-5-fluoro-N-isopropylbenzamide] | +++ (“+++” means ≥66%) | +++ (“+++” means ≥66%) | – | < 1 nM | ≥ 50 µM | – | – |
| CC(C)N(C(=O)c1cc(F)ccc1Oc1cncnc1N1CC2(CCN(C[C@@H]3CC[C@@H](NS(=O)(=O)C4CC4)CO3)CC2)C1)C(C)C [Compound 15, 2-((4-(7-(((2S,5R)-5-(cyclopropanesulfonamido)tetrahydro-2H-pyran-2-yl)methyl)-2,7-diazaspiro[3.5]nonan-2-yl)pyrimidin-5-yl)oxy)-5-fluoro-N,N-diisopropylbenzamide] | +++ (“+++” means ≥66%) | ++ (“++” means ≥33% and <66%) | < 50 nM | < 1 nM | 25 to 50 µM | +++ (“+++” means ≥66%) | + (“+” means <33%) |
| CCN(C(=O)c1cc(F)ccc1Oc1cncnc1N1CC2(CCN(C[C@@H]3CC[C@@H](NS(=O)(=O)N4CCC4)CO3)CC2)C1)C(C)C [Compound 69, 2-((4-(7-(((2S,5R)-5-(Azetidine-1-sulfonamido)tetrahydro-2H-pyran-2-yl)methyl)-2,7-diazaspiro[3.5]nonan-2-yl)pyrimidin-5-yl)oxy)-N-ethyl-5-fluoro-N-isopropylbenzamide] | +++ (“+++” means ≥66%) | ++ (“++” means ≥33% and <66%) | < 50 nM | < 1 nM | 25 to 50 µM | – | – |

Source: US11919901B2 (Syndax Pharmaceuticals, Inc., priority 2021, dated 2024)
